Patent US8802705B2, “Pharmaceutical containing PPAR delta agonist” (Senju Pharmaceutical Co., Ltd., priority 2007, dated 2014)

Assays:
Type in all cases: cell-based
[1] = tested on: Normal human corneal epithelial cells; experiment: Effect on increase of cell number of normal human corneal epithelial cells (Experimental Example 4, Cell Counting Kit-8); conditions: for effect on cell number of normal human corneal epithelial cells (in words): 0.01-1 μM, conclusion of the test; for cell number increase rate: relative to non-addition group = 100%, mean ± SD, N = 4
Procedure: (§1) Normal human corneal epithelial cells (KURABO) were used.
As a test substance, compound B or compound C was used. Compound B and compound C were each dissolved in ethanol (Wako Pure Chemical Industries, Ltd.) to a concentration 200-fold of the final concentration in a culture medium, and the solution was stored at −80° C. until immediately before use.
As a cell culture medium for consideration of the cell number-increasing effect by compound B and compound C, a culture medium (basal medium) obtained by adding insulin, hydrocortisone and transferrin contained in HCGS growth additive set (KURABO) to EpiLife (KURABO) was used.
Normal human corneal epithelial cells cryopreserved in liquid nitrogen were thawed and the cell number was counted. The total amount thereof was transferred to EpiLife added with all of the HCGS growth additive set (insulin, epidermal growth factor mEGF derived from mouse, hydrocortisone, transferrin, bovine brain hypophysis extract) (4 mL, complete medium), and suspended well therein. The cell suspension was seeded on a fibronectin-coated 24 well plate (Becton Dickinson) at a cell number of 2×10^4 cells/500 μL/well (1×10^4 cells/cm^2 since bottom area was 2 cm^2). After completion of cell seeding, the culture plate was incubated in an incubator set to 37° C., 5% CO2, 95% air and 100% humidity for 24 hr, and the culture medium was changed to 400 μL of the basal medium (EpiLife added with insulin, hydrocortisone and transferrin from HCGS growth additives). After 24 hr thereafter, the culture medium was changed to the following culture medium (each 400 μL). • [1] basal medium alone (non-addition group) • [2] basal medium+mEGF (final concentration: 1 ng/mL; positive control group) • [3] basal medium+compound B (final concentration: 0.01 μM, 0.1 μM, 1 μM; compound B addition group) • [4] basal medium+compound C (final concentration: 0.01 μM, 0.1 μM, 1 μM; compound C addition group)
(§2) Ethanol (5 μL) was added to 1 mL each of culture media and [2] to uniformly set the ethanol concentration of all culture media to 0.5%.
(§3) After 24 hr from the start of the stimulation with compound B or compound C, the culture supernatant was removed from each well, and a basal medium added with 10% Cell Counting Kit-8 (DOJINDO) was dispensed to each well by 200 μL. After dispensing, the culture plate was transferred to an incubator set to 37° C., 5% CO2, 95% air and 100% humidity and incubated for 2 hr. The supernatant (100 μL) was transferred to a 96 well culture plate for tissue culture (Corning), and the absorbance of each well at 450 nm was measured with a microplate reader (Dainippon Sumitomo Pharma Co., Ltd.), and used as an index of cell number increase.
The values of the positive control group and the compound B or compound C addition group were calculated based on the average absorbance of the non-addition group as 100%, and the non-addition group was compared with the compound B or compound C addition group and positive control group according to the Dunnett multiple comparison test (one-tailed). A critical value of less than 5% as a result of the test was judged as significant.

[2] = tested on: monkey meibomian gland epithelial cells; experiment: Effect on cell number increase in meibomian gland epithelial cells (Experimental Example 3, Cell Counting Kit-8); conditions: medium renewed every 48 hr (3 x 48 hr), relative to non-addition group = 100%, mean ± SD, N = 5 or 10
From the text: An eyelid of monkey isolated and stored in D-PBS was transferred to a clean bench, and cell preparation was aseptically performed as follows.
The isolated eyelid was immersed in 80% ethanol for 30 sec, washed three times with D-PBS added with 1% penicillin-streptomycin (Invitrogen), and transferred to a minimum essential medium (MEM; Invitrogen). The adipose tissue and muscular tissue surrounding the meibomian glandular tissue of the eyelid were removed under a stereomicroscope. They were transferred to MEM containing 0.3 U/mL collagenase A (Roche Diagnostics) and 2.4 U/mL dispase II (Roche Diagnostics), and shaken at 37° C. for 4 hr and at 4° C. overnight. The enzyme-treated tissue was set under a stereomicroscope, and the eyelash and eyelid connective tissue were removed to isolate the meibomian glandular tissue. Trypsin-EDTA (4 mL, Invitrogen) was added to the isolated glandular tissue, and the mixture was incubated at 37° C. for 10 min. After incubation, MEM (5 mL) containing 10% FBS (Invitrogen) was added thereto to stop the enzyme reaction, and the tissue constituting cells were dispersed by repeated suction and discharge of the mixture 5 times using an injection syringe equipped with a 21 G injection needle. The cell dispersion was passed through 100 μm and 40 μm nylon filters (Cell Strainer; Falcon), and cell mass and the like contained therein which could not be treated with the enzyme were removed. The cell suspension passed through the filters was collected in a centrifuge tube (50 mL) and centrifuged at room temperature, 1,500 rpm for 5 min. To the cell layers containing the object cells obtained by the centrifugation was added 80 μL of D-PBS containing 0.5% bovine serum albumin (BSA; Sigma-Aldrich), and the cells were sufficiently suspended therein. Anti-Fibroblast Microbeads (Militenyi Biotec, 20 μL) was added thereto, and the mixture was left standing at room temperature for 30 min. After completion of the reaction with an antibody, 2 mL of D-PBS containing 0.5% BSA was added thereto, and the mixture was centrifuged again at room temperature, 1,500 rpm for 5 min. To the cell layers containing the object cells obtained by the centrifugation was added 1 mL of D-PBS containing 0.5% BSA, and the cells were sufficiently suspended therein. The suspension was added dropwise to LD column (Militenyi Biotec) equilibrated in advance with a column washing solution (D-PBS containing 2 mM EDTA (DOJINDO LABORATORIES) and 0.5% BSA). Then, 2 mL of the column washing solution was added dropwise to the LD column. […] The cells collected in the centrifuge tube were centrifuged at room temperature, 1,500 rpm for 5 min, and the supernatant was removed. The sediment was suspended in Defined Keratinocyte Serum Free Medium (5 mL), centrifuged at room temperature, 1,500 rpm for 5 min, and removed the supernatant. Again, the residue was suspended in DK-SFM (3 mL), centrifuged at room temperature and 1,500 rpm for 5 min, and the supernatant was removed. The cells were suspended in DK-SFM (2 mL), and seeded on a 6 well multi-well plate for cell culture, which had been treated with collagen. The seeded cells were cultured in Defined keratinocyte-Serum Free Medium (DK-SFM; Invitrogen, attached Supplement was added as instructed in the preparation protocol), cultured in an incubator (SANYO) set to 37° C., 5% CO2, 95% air, 100% humidity, and the culture medium was exchanged with a new one every 48 hr until the cells became subconfluent.
As a test substance, compound A, [4-[3-[2-(4-trifluoromethyl)phenyl-4-isopropyl-5-thiazolyl]propionyl]-2-methylphenoxy]acetic acid (hereinafter to be referred to as compound B) or [4-[3-[2-(2-hydroxy-4-chlorophenyl)-5-isopropyl-4-oxazolyl]propionyl]-2-methylphenoxy]acetic acid (hereinafter to be referred to as compound C) was used. […]

[3] = tested on: Normal human corneal epithelial cells; experiment: Effect on increase of cell number of normal human corneal epithelial cells (Experimental Example 1, Cell Counting Kit-8); conditions: positive control, final concentration 1 ng/mL, 24 hr, relative to non-addition group = 100%, mean ± SD
Procedure: as §1
As a test substance, [3-[2-[4-isopropyl-2-(4-trifluoromethyl)phenyl-5-thiazolyl]ethyl]-5-methyl-1,2-benzisoxazol-6-yl]oxyacetic acid (hereinafter to be referred to as compound A) was used. Compound A was dissolved in ethanol (Wako Pure Chemical Industries, Ltd.) to a concentration 200-fold of the final concentration in a culture medium, and the solution was stored at −80° C. until immediately before use.
As a cell culture medium for consideration of the cell number-increasing effect by compound A, a culture medium (basal medium) obtained by adding insulin, hydrocortisone and transferrin contained in HCGS growth additive set (KURABO) to EpiLife (KURABO) was used.
Normal human corneal epithelial cells cryopreserved in liquid nitrogen were thawed and the cell number was counted. The total amount thereof was transferred to EpiLife added with all of the HCGS growth additive set (insulin, epidermal growth factor mEGF derived from mouse, hydrocortisone, transferrin, bovine brain hypophysis extract) (4 mL, complete medium), and suspended well therein. The cell suspension was seeded on a fibronectin-coated 24 well plate (Becton Dickinson) at a cell number of 2×10^4 cells/500 μL/well (1×10^4 cells/cm^2 since bottom area was 2 cm^2).
After completion of cell seeding, the culture plate was incubated in an incubator set to 37° C., 5% CO2, 95% air and 100% humidity for 24 hr, and the culture medium was changed to 400 μL of the basal medium (EpiLife added with insulin, hydrocortisone and transferrin from HCGS growth additives).
After 24 hr thereafter, the culture medium was changed to the following culture medium (each 400 μL). • [1] basal medium alone (non-addition group) • [2] basal medium+mEGF (final concentration: 1 ng/mL; positive control group) • [3] basal medium+compound A (final concentration: 0.1 nM, 1 nM, 0.01 μM, 0.1 μM; compound A addition group)
as §2
as §3, with “A,” for “B or compound C,”
The values of the positive control group and the compound A addition group were calculated based on the average absorbance of the non-addition group as 100%, and the non-addition group was compared with the compound A addition group and positive control group according to the Dunnett multiple comparison test (one-tailed). A critical value of less than 5% as a result of the test was judged as significant.

Compound | effect on cell number of normal human corneal epithelial cells (in words) [1] | cell number increase rate ([1]; 10^−6 M, 24 hr stimulation) | cell number increase rate ([1]; 10^−7 M, 24 hr stimulation) | cell number increase rate ([1]; 10^−8 M, 24 hr stimulation) | cell number increase ratio ([2]; 10^−6 M) | cell number increase ratio ([2]; 10^−7 M) | cell number increase ratio ([2]; 10^−8 M) | cell number increase rate ([1]; positive control, final concentration 1 ng/mL, 24 hr) | cell number increase rate [3]
Cc1cc(C(=O)CCc2sc(-c3ccc(C(F)(F)F)cc3)nc2C(C)C)ccc1OCC(=O)O [compound B, [4-[3-[2-(4-trifluoromethyl)phenyl-4-isopropyl-5-thiazolyl]propionyl]-2-methylphenoxy]acetic acid] | increase the cell number of normal human corneal epithelial cells | 254.3 ± 11.7% | 256.4 ± 11.0% | 252.4 ± 34.7% | 158.8 ± 15.2% | 174.4 ± 8.9% | 155.0 ± 28.0% | – | –
Cc1cc(C(=O)CCc2nc(-c3ccc(Cl)cc3O)oc2C(C)C)ccc1OCC(=O)O [compound C, [4-[3-[2-(2-hydroxy-4-chlorophenyl)-5-isopropyl-4-oxazolyl]propionyl]-2-methylphenoxy]acetic acid] | increase the cell number of normal human corneal epithelial cells | 260.2 ± 2.5% | 247.5 ± 14.1% | 243.3 ± 6.6% | 179.4 ± 7.5% | 175.2 ± 7.8% | 155.0 ± 11.6% | – | –
mEGF: epidermal growth factor mEGF derived from mouse, from HCGS growth additive set (KURABO); positive control (NSYPGCPSSYDGYCLNGGVCMHIESLDSYTCNCVIGYSGDRCQTRDLRWWELR; UniProt P01132 977-1029, looked up) [reference compound] | – | – | – | – | – | – | – | 232.8 ± 22.5% | 147.5 ± 47.2%
